Reference: US20040115236A1, “Devices and methods for management of inflammation” (priority 2000, published 2004)

Assays:
[1] = solubility in sterile distilled water; assay type: physicochemical; conditions: thermodynamic from solid, read-out: maximum solubility
Source text: Sodium cromoglycate may be delivered from an implanted pump without the use of a catheter. For example, a DUROS® osmotic pump could be used. […] The formulation of sodium cromoglycate may then be loaded into a DUROS® pump under aseptic conditions. The pump is implanted in a subject, for instance subcutaneously in the upper arm, under local anesthetic and the drug would be released therefrom into the body of the subject. [formula]

[2] = system: exercise-induced bronchoconstriction; conditions: inhaled administration, plasma concentrations of 4-6 ng/ml; cited from earlier work
[3] = cited from earlier work

SMILES: O=C(O)c1cc(=O)c2c(OCC(O)COc3cccc4oc(C(=O)O)cc(=O)c34)cccc2o1 [sodium cromoglycate, Sodium cromoglycate]
- solubility [1]: ~120 mg/mL
- inhibition of exercise-induced bronchoconstriction [2]: 66%
- bioavailability, inhaled ([3]; inhaled): 7.5%
- oral bioavailability ([3]; oral): less than 1%
